Laboratory results as given in patent US8598120B2 (Amylin Pharmaceuticals, LLC, priority 2004, dated 2013).
Square brackets hold non-standard residues; d marks the D form. * marks the point of attachment. Pentanoyl(4-Me) = CC(C)CCC(=O)*; Aib = CC(C)(N)C(=O)O; For = O=C*

Test: Food intake assay in overnight fasted mice
Format: in vivo
Settings: 25 nmol/kg intraperitoneal
Description: Female NIH/Swiss mice (8-14 weeks old) were group housed with a 12:12 hour light:dark cycle. Water and a standard pelleted mouse chow diet are available ad libitum, except as noted. Animals are fasted starting at approximately 1500 hrs, 1 day prior to experiment.
The effects of treatment on food intake are expressed as % change relative to control.

KCNTATCVLGRLADFLHRFHTFPRTNTGSNTY [Compound 108]
cumulative food intake compared to vehicle, 30 min: −70%
cumulative food intake compared to vehicle, 60 min: −66%
cumulative food intake compared to vehicle, 120 min: −38%

CSALSTCVLGRLSQELHRLQTYPRTNTGSNTY [Compound 26]
cumulative food intake compared to vehicle, 30 min: −29%
cumulative food intake compared to vehicle, 60 min: −36%
cumulative food intake compared to vehicle, 120 min: −47%

KCDTATCVTHRLAGLLSRSQTYPRTNTGSNTY [Compound 94]
cumulative food intake compared to vehicle, 30 min: −62%
cumulative food intake compared to vehicle, 60 min: −42%
cumulative food intake compared to vehicle, 120 min: −36%
cumulative food intake compared to vehicle, 180 min: −31%

TCDTATCVLGRLSQELHRLQTYPRTNTGSNTY [Compound 114]
cumulative food intake compared to vehicle, 30 min: −17%
cumulative food intake compared to vehicle, 60 min: −20%
cumulative food intake compared to vehicle, 120 min: −25%

KCNTAACVLGRLSQELHRLQTYPRTNTGSNTY [Compound 18]
cumulative food intake compared to vehicle, 30 min: −2%
cumulative food intake compared to vehicle, 60 min: −7%
cumulative food intake compared to vehicle, 120 min: −16%
cumulative food intake compared to vehicle, 180 min: −21%

Isocaproyl-STAVL(Aib)[K(For)]LSQEL(Aib)[K(For)]LQTYPRTNVGSNTY ({Pentanoyl(4-Me)}-STAVL[Aib]K(For)LSQEL[Aib]K(For)LQTYPRTNVGSNTY-NH2; SMILES CC(C)CCC(=O)N[C@@H](CO)C(=O)N[C@H](C(=O)N[C@@H](C)C(=O)N[C@H](C(=O)N[C@@H](CC(C)C)C(=O)NC(C)(C)C(=O)N[C@@H](CCCCNC=O)C(=O)N[C@@H](CC(C)C)C(=O)N[C@@H](CO)C(=O)N[C@@H](CCC(N)=O)C(=O)N[C@@H](CCC(=O)O)C(=O)N[C@@H](CC(C)C)C(=O)NC(C)(C)C(=O)N[C@@H](CCCCNC=O)C(=O)N[C@@H](CC(C)C)C(=O)N[C@@H](CCC(N)=O)C(=O)N[C@H](C(=O)N[C@@H](Cc1ccc(O)cc1)C(=O)N1CCC[C@H]1C(=O)N[C@@H](CCCNC(=N)N)C(=O)N[C@H](C(=O)N[C@@H](CC(N)=O)C(=O)N[C@H](C(=O)NCC(=O)N[C@@H](CO)C(=O)N[C@@H](CC(N)=O)C(=O)N[C@H](C(=O)N[C@@H](Cc1ccc(O)cc1)C(N)=O)[C@@H](C)O)C(C)C)[C@@H](C)O)[C@@H](C)O)C(C)C)[C@@H](C)O) [Compound 32]
cumulative food intake compared to vehicle, 30 min: −15%
cumulative food intake compared to vehicle, 60 min: −21%
cumulative food intake compared to vehicle, 120 min: −31%

KCNTSTCATQRLANELVRLQTYPRTNVGSEAF [Compound 84]
cumulative food intake compared to vehicle, 30 min: −53%
cumulative food intake compared to vehicle, 60 min: −40%
cumulative food intake compared to vehicle, 120 min: −20%

KCNTATCLLQQLQKLLQKLKQYPRTNTGSNTY [Compound 35]
cumulative food intake compared to vehicle, 30 min: −20%
cumulative food intake compared to vehicle, 60 min: −16%
cumulative food intake compared to vehicle, 120 min: −18%

KCNTATCVTHRLSQELHRLQTYPRTNTGSNTY [Compound 87]
cumulative food intake compared to vehicle, 30 min: −43%
cumulative food intake compared to vehicle, 60 min: −32%
cumulative food intake compared to vehicle, 120 min: −21%

KCNTATCVLGRLSQELHRLQNFVPRTNTGSNTY [Compound 90]
cumulative food intake compared to vehicle, 30 min: −55%
cumulative food intake compared to vehicle, 60 min: −41%
cumulative food intake compared to vehicle, 120 min: −24%
cumulative food intake compared to vehicle, 180 min: −15%

KCNTATCVLGRLSQELHRLQTLPRTNTGSNTY [Compound 11]
cumulative food intake compared to vehicle, 30 min: −52%
cumulative food intake compared to vehicle, 60 min: −47%
cumulative food intake compared to vehicle, 120 min: −38%
cumulative food intake compared to vehicle, 180 min: −35%

KCDTATCVLGRLSQELHRLQTYPRTNTGSNTY [Compound 111]
cumulative food intake compared to vehicle, 30 min: −39%
cumulative food intake compared to vehicle, 60 min: −37%
cumulative food intake compared to vehicle, 120 min: −32%

KCNTATCVLGRLSQELHRYPRTNTGSNTY [Compound 39]
cumulative food intake compared to vehicle, 30 min: 7%
cumulative food intake compared to vehicle, 60 min: −14%
cumulative food intake compared to vehicle, 120 min: −23%

KDNTATKVLGRLSQELHRLQTYPRTNTGSNTY [Compound 69]
cumulative food intake compared to vehicle, 30 min: −29%
cumulative food intake compared to vehicle, 60 min: −31%
cumulative food intake compared to vehicle, 120 min: −45%
